Results from PMC8294803, “A Roadmap to the Structure-Related Metabolism Pathways of Per- and Polyfluoroalkyl Substances in the Early Life Stages of Zebrafish (Danio rerio)” (Environmental Health Perspectives, 2021).

What follows are compounds tested on zebrafish embryos. Settings: 5μM through 120 hpf, malformation rate.

SMILES | pericardial oedemata, Mean [%] | spinal curvature, Mean [%] | tail dysplasia, Mean [%]
FC(F)(F)COC(OCC(F)(F)F)OCC(F)(F)F [compound 1, tris(Trifluoroethoxy)methane] | 2.22 | 2.22 | 2.22
FCOC(C(F)(F)F)C(F)(F)F [compound 3, Sevoflurane, reference compound] | 0.00 | 2.22 | 0.00
O=S(=O)(F)C(F)(F)C(F)(F)C(F)(F)C(F)(F)F [compound 8, Perfluorobutanesulfonyl fluoride] | 0.00 | 1.11 | 3.33
CCN(CCO)S(=O)(=O)C(F)(F)C(F)(F)C(F)(F)C(F)(F)C(F)(F)C(F)(F)C(F)(F)C(F)(F)F [compound 9, N-Ethyl-N-(2-hydroxyethyl)perfluorooctanesulfonamide] | 1.11 | 0.00 | 0.00
OCC(F)(F)C(F)(F)C(F)(F)F [compound 11, Heptafluorobutanol] | 4.44 | 2.22 | 0.00
C=CCOC(F)(C(F)(F)F)C(F)(F)F [compound 18, Allyl perfluoroisopropyl ether] | 0.00 | 0.00 | 0.00
CC=CC(F)(F)C(F)(F)C(F)(F)F [compound 22, 1-Propenylperfluoropropane] | 0.00 | 0.00 | 0.00
C=CC(F)(C(F)(F)F)C(F)(F)C(F)(F)F (stereo not shown) [compound 25, 2-Vinylperfluorobutane] | 0.00 | 0.00 | 0.00
FC(F)(F)COCC(F)(F)F [compound 27, Flurothyl, reference compound] | 2.22 | 0.00 | 0.00
CC(F)(F)CC(F)(F)F [compound 29, 1,1,1,3,3-Pentafluorobutane] | 0.00 | 0.00 | 0.00
NC(O)(C(F)(F)F)C(F)(F)F [compound 33, 2-Aminohexafluoropropan-2-ol] | 0.00 | 0.00 | 0.00
O=C(O)C(F)(OC(F)(F)C(F)(F)C(F)(F)F)C(F)(F)F (stereo not shown) [compound 37, Perfluoro-2-methyl-3-oxahexanoic acid] | 2.22 | 0.00 | 1.11
OCCC(F)(F)C(F)(F)C(F)(F)C(F)(F)F [compound 41, 4:2 Fluorotelomer alcohol] | 3.33 | 0.00 | 0.00
O=CC(F)(F)C(F)(F)C(F)(F)F [compound 42, Perfluorobutyraldehyde] | 2.22 | 2.22 | 0.00
O=C(OC(=O)C(F)(F)C(F)(F)F)C(F)(F)C(F)(F)F [compound 43, Pentafluoropropanoic anhydride] | 4.44 | 0.00 | 4.44
FC(F)(F)C(F)(F)CNCC(F)(F)C(F)(F)F [compound 45, Bis(1H,1H-perfluoropropyl)amine] | 1.11 | 0.00 | 1.11
FC(F)OCC(F)(F)C(F)(F)F [compound 52, Difluoromethyl 1H,1H-perfluoropropyl] | 1.11 | 0.00 | 0.00
FC(F)=C(F)OC(F)(F)C(F)(F)C(F)(F)F [compound 53, Heptafluoropropyl trifluorovinyl ether] | 0.00 | 1.11 | 0.00
CC(=O)C(F)(F)C(F)(F)F [compound 55, Methyl perfluoroethyl ketone] | 1.11 | 2.22 | 0.00
C=CC(F)(F)C(F)(F)C(F)(F)C(F)(F)F [compound 59, 1H,1H,2H-Perfluoro-1-hexene] | 0.00 | 1.11 | 0.00
CC(O)C(F)(F)C(F)(F)F (stereo not shown) [compound 62, 1-Pentafluoroethylethanol] | 1.11 | 0.00 | 1.11
O=C(F)C(F)(F)C(F)(F)C(F)(F)C(=O)F [compound 63, Perfluoroglutaryl difluoride] | 0.00 | 0.00 | 0.00
OCCC(F)(F)C(F)(F)C(F)(F)C(F)(F)C(F)(F)C(F)(F)C(F)(F)C(F)(F)F [compound 64, 8:2 Fluorotelomer alcohol] | 0.00 | 2.22 | 0.00
CCOC(F)(F)C(F)(F)C(F)(F)C(F)(F)F [compound 65, Ethyl perfluorobutyl ether] | 0.00 | 0.00 | 0.00
OC(O)(C(F)C(O)(O)C(F)(F)F)C(F)(F)F [compound 66, 3H-Perfluoro-2,2,4,4-tetrahydroxypentane] | 0.00 | 0.00 | 0.00
NCC(F)(F)C(F)(F)C(F)(F)C(F)(F)F [compound 68, 1H,1H-Perfluoropentylamine] | 0.00 | 0.00 | 0.00
FC(F)=C(F)C(F)(F)C(F)(F)C(F)(F)C(F)F [compound 69, 6H-Perfluorohex-1-ene] | 0.00 | 0.00 | 0.00
NC(C(F)(F)F)C(F)(F)F [compound 71, 2-Amino-2H-perfluoropropane] | 0.00 | 0.00 | 0.00
O=CC(F)(F)C(F)(F)C(F)(F)C(F)F [compound 72, 5H-Perfluoropentanal] | 0.00 | 0.00 | 0.00

Same assay, conditions: 5 µM, exposure through 120 hpf

SMILES | Mortality (%)
FC(F)(F)COC(OCC(F)(F)F)OCC(F)(F)F [compound 1, tris(Trifluoroethoxy)methane] | 0
FCOC(C(F)(F)F)C(F)(F)F [compound 3, Sevoflurane, reference compound] | 1.1
O=S(=O)(F)C(F)(F)C(F)(F)C(F)(F)C(F)(F)F [compound 8, Perfluorobutanesulfonyl fluoride] | 2.2
CCN(CCO)S(=O)(=O)C(F)(F)C(F)(F)C(F)(F)C(F)(F)C(F)(F)C(F)(F)C(F)(F)C(F)(F)F [compound 9, N-Ethyl-N-(2-hydroxyethyl)perfluorooctanesulfonamide] | 1.1
OCC(F)(F)C(F)(F)C(F)(F)F [compound 11, Heptafluorobutanol] | 1.1
C=CCOC(F)(C(F)(F)F)C(F)(F)F [compound 18, Allyl perfluoroisopropyl ether] | 3.3
CC=CC(F)(F)C(F)(F)C(F)(F)F [compound 22, 1-Propenylperfluoropropane] | 3.3
C=CC(F)(C(F)(F)F)C(F)(F)C(F)(F)F (stereo not shown) [compound 25, 2-Vinylperfluorobutane] | 1.1
FC(F)(F)COCC(F)(F)F [compound 27, Flurothyl, reference compound] | 1.1
CC(F)(F)CC(F)(F)F [compound 29, 1,1,1,3,3-Pentafluorobutane] | 3.3
NC(O)(C(F)(F)F)C(F)(F)F [compound 33, 2-Aminohexafluoropropan-2-ol] | 7.8
O=C(O)C(F)(OC(F)(F)C(F)(F)C(F)(F)F)C(F)(F)F (stereo not shown) [compound 37, Perfluoro-2-methyl-3-oxahexanoic acid] | 1.1
OCCC(F)(F)C(F)(F)C(F)(F)C(F)(F)F [compound 41, 4:2 Fluorotelomer alcohol] | 0
O=CC(F)(F)C(F)(F)C(F)(F)F [compound 42, Perfluorobutyraldehyde] | 0
O=C(OC(=O)C(F)(F)C(F)(F)F)C(F)(F)C(F)(F)F [compound 43, Pentafluoropropanoic anhydride] | 5.6
FC(F)(F)C(F)(F)CNCC(F)(F)C(F)(F)F [compound 45, Bis(1H,1H-perfluoropropyl)amine] | 2.2
FC(F)OCC(F)(F)C(F)(F)F [compound 52, Difluoromethyl 1H,1H-perfluoropropyl] | 2.2
FC(F)=C(F)OC(F)(F)C(F)(F)C(F)(F)F [compound 53, Heptafluoropropyl trifluorovinyl ether] | 2.2
CC(=O)C(F)(F)C(F)(F)F [compound 55, Methyl perfluoroethyl ketone] | 2.2
C=CC(F)(F)C(F)(F)C(F)(F)C(F)(F)F [compound 59, 1H,1H,2H-Perfluoro-1-hexene] | 4.4
CC(O)C(F)(F)C(F)(F)F (stereo not shown) [compound 62, 1-Pentafluoroethylethanol] | 6.7
O=C(F)C(F)(F)C(F)(F)C(F)(F)C(=O)F [compound 63, Perfluoroglutaryl difluoride] | 5.6
OCCC(F)(F)C(F)(F)C(F)(F)C(F)(F)C(F)(F)C(F)(F)C(F)(F)C(F)(F)F [compound 64, 8:2 Fluorotelomer alcohol] | 3.3
CCOC(F)(F)C(F)(F)C(F)(F)C(F)(F)F [compound 65, Ethyl perfluorobutyl ether] | 0
OC(O)(C(F)C(O)(O)C(F)(F)F)C(F)(F)F [compound 66, 3H-Perfluoro-2,2,4,4-tetrahydroxypentane] | 1.1
NCC(F)(F)C(F)(F)C(F)(F)C(F)(F)F [compound 68, 1H,1H-Perfluoropentylamine] | 1.1
FC(F)=C(F)C(F)(F)C(F)(F)C(F)(F)C(F)F [compound 69, 6H-Perfluorohex-1-ene] | 0
NC(C(F)(F)F)C(F)(F)F [compound 71, 2-Amino-2H-perfluoropropane] | 3.3
O=CC(F)(F)C(F)(F)C(F)(F)C(F)F [compound 72, 5H-Perfluoropentanal] | 3.3

Same assay, conditions: in vivo

SMILES | Mortality (%) | pericardial oedemata, Mean [%] | spinal curvature, Mean [%] | tail dysplasia, Mean [%]
COC(F)(F)C(F)(C(F)(F)F)C(F)(F)F [compound 44, Perfluoroisobutyl methyl ether] | 1.1 | 1.11 | 1.11 | 0.00
O=C(F)C(F)(F)C(F)(F)C(F)(F)C(F)F [compound 51, 5H-Octafluoropentanoyl fluoride] | 0 | 1.11 | 0.00 | 3.33
